Measured values taken from US20170121315A1, “HETEROBICYCLICALLY SUBSTITUTED 4-OXOBUTANE ACID DERIVATIVES AND USE THEREOF” (priority 2014, published 2017).
pIC50: −log10 of the molar value.

Columns and labels:
Format in all cases: biochemical
MMP-2 = molecular target: T1, MMP-2 (Homo sapiens, UniProt P08253); assay: In vitro MMP-2 inhibition test; details: human MMP-2
T1 construct: purchased R&D Systems 902-MP
T1 sequence (P08253 110-660): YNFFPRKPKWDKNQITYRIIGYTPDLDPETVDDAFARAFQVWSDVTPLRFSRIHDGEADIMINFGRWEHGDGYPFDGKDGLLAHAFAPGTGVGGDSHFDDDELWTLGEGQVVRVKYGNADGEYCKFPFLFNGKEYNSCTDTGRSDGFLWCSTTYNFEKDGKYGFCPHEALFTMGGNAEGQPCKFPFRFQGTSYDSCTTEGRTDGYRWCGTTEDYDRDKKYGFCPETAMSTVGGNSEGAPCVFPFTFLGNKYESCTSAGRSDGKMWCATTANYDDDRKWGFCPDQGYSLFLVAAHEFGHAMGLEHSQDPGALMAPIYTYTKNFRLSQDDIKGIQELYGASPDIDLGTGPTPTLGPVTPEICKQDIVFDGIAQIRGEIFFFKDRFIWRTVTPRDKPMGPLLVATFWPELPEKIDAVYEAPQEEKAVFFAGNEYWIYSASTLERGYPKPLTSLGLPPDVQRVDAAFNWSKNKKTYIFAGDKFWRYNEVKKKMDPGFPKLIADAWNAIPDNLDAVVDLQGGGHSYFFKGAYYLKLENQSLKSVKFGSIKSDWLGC
Text: (§1) The MMP-mediated amidolytic cleavage of a suitable peptide substrate leads to an increase in fluorescent light here too. The signal intensity of the fluorescent light is directly proportional to the enzyme activity. The active concentration of a test compound at which half the enzyme is inhibited (50% signal intensity of the fluorescent light) is reported as the IC50 value.
(§2) Recombinant MMP-2 (R&D Systems, 902-MP) is chemically activated in accordance with the manufacturer's instructions using APMA. 1 μl of the test compound to be analysed (as a solution in DMSO, suitable concentrations e.g. 1 nM to 30 μM) is pipetted into 24 μl of activated enzyme (final concentration e.g. 2 nM) in reaction buffer (50 mM Tris/HCl pH 7.5, 10 mM CaCl2, 150 mM NaCl, 0.05% Brij®-35) in a white 384-hole microtiter plate (MTP). The enzymatic reaction is started by adding the intramolecularly quenched Mca-Pro-Leu-Gly-Leu-Dpa(Dnp)-Ala-Arg-NH2 substrate (final concentration e.g. 10 μM; R&D Systems, ES-001), so as to result in a total test volume of 50 μl. The course of the MMP-2 reaction is measured by measuring the fluorescence intensity (excitation 320 nm, emission 410 nm) over a suitable period of time (e.g. over 120 min at a temperature of 32° C.).

MMP-3 = molecular target: T2, MMP-3 (Homo sapiens, UniProt P08254); assay: In vitro MMP-3 inhibition test; details: human MMP-3
T2 construct: purchased R&D Systems 513-MP
T2 sequence (P08254 100-477): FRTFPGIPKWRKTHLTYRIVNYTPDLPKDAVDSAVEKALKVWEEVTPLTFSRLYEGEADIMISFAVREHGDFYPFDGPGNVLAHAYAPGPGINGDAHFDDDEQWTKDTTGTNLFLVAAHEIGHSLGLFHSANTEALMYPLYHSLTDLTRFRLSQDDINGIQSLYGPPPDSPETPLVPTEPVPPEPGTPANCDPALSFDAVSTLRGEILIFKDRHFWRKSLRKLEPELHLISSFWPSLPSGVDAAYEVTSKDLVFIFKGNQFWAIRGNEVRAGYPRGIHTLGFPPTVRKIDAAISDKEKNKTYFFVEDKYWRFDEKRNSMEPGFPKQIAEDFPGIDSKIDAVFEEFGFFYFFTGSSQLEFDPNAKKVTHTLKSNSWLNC
Text: as §1
as §2, with “MMP-3” for “MMP-2”, “513-MP)” for “902-MP)”, “Mca-Arg-Pro-Lys-Pro-Val-Glu-Nval-Trp-Arg-Lys(Dnp)-NH2” for “Mca-Pro-Leu-Gly-Leu-Dpa(Dnp)-Ala-Arg-NH2”, “ES-002),” for “ES-001),”

MMP-9 = molecular target: T3, MMP-9 (Homo sapiens, UniProt P14780); assay: In vitro MMP-9 inhibition test; details: human MMP-9
T3 construct: purchased R&D Systems 911-MP
T3 sequence (P14780 107-707 limits assumed): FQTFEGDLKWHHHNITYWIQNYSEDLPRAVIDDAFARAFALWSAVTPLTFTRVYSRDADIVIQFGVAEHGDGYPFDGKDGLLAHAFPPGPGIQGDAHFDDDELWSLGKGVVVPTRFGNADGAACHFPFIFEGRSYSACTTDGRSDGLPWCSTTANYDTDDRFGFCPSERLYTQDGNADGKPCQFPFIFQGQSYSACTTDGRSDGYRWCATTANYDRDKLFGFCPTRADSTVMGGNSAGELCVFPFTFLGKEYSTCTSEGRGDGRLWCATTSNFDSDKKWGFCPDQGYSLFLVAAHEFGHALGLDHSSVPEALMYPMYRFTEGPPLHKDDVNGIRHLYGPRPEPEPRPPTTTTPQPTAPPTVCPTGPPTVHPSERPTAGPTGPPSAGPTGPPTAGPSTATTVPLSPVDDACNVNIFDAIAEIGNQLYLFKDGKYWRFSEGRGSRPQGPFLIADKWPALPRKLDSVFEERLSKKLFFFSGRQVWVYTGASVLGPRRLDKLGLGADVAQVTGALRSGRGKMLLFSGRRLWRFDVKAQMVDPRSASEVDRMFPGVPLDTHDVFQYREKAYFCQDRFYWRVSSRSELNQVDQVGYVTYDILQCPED
Text: as §1
as §2, with “Recombinant MMP-9” for “Recombinant MMP-2”, “Systems, 911-MP)” for “Systems, 902-MP)”, “e.g. 0.1” for “e.g. 2”, “the MMP-9” for “the MMP-2”

MMP-16 = molecular target: T4, MMP-16 (Homo sapiens, UniProt P51512); assay: In vitro MMP-16 inhibition test; details: human MMP-16
T4 construct: purchased R&D Systems 1785-MP
T4 sequence (P51512 120-564 limits assumed): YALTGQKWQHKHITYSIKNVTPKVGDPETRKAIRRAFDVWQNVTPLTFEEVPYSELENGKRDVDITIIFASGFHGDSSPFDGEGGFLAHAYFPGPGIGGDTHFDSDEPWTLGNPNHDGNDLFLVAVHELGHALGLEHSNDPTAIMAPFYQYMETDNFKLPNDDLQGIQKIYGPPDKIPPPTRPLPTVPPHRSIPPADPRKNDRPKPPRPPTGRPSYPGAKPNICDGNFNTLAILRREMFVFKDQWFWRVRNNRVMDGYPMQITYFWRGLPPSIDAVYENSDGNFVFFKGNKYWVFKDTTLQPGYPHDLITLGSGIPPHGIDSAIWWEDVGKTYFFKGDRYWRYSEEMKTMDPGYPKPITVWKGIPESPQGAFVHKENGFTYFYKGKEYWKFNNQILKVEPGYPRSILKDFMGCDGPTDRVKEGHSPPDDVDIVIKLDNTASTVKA
Text: as §1
Recombinant MMP-16 (R&D Systems, 1785-MP) is enzymatically activated in accordance with the manufacturer's instructions using recombinant furin (R&D Systems, 1503-SE). 1 μl of the test compound to be analysed (as a solution in DMSO, suitable concentrations e.g. 1 nM to 30 μM) is pipetted into 24 μl of activated enzyme (final concentration e.g. 1 nM) in reaction buffer (50 mM Tris/HCl pH 7.5, 10 mM CaCl2, 150 mM NaCl, 0.05% Brij®-35) in a white 384-hole microtiter plate (MTP). The enzymatic reaction is started by adding the intramolecularly quenched Mca-Lys-Pro-Leu-Gly-Leu-Dpa(Dnp)-Ala-Arg-NH2 substrate (final concentration e.g. 5 μM; R&D Systems, ES-010), so as to result in a total test volume of 50 μl. The course of the MMP-16 reaction is measured by measuring the fluorescence intensity (excitation 320 nm, emission 410 nm) over a suitable period of time (e.g. over 120 min at a temperature of 32° C.).

| SMILES | pIC50 (MMP-2) | pIC50 (MMP-3) | pIC50 (MMP-9) | pIC50 (MMP-16) |
| --- | --- | --- | --- | --- |
| O=C(CC(CCn1nnc2ccc(C(F)(F)F)cc2c1=O)C(=O)O)c1noc2cc(OCc3ccccc3)ccc12 (racemic) [Example 154, (+/−)-4-[6-(Benzyloxy)-1,2-benzoxazol-3-yl]-4-oxo-2-{2-[4-oxo-6-(trifluoromethyl)-1,2,3-benzotriazin-3(4H)-yl]ethyl}butanoic acid] | 5.25 | 5.00 | 6.60 | 4.89 |
| O=C(CC(CCn1nnc2ccc(C(F)(F)F)cc2c1=O)C(=O)O)c1noc2cc(OCC3CCOCC3)ccc12 (racemic) [Example 155, (+/−)-4-Oxo-2-{2-[4-oxo-6-(trifluoromethyl)-1,2,3-benzotriazin-3(4H)-yl]ethyl}-4-[6-(tetrahydro-2H-pyran-4-ylmethoxy)-1,2-benzoxazol-3-yl]butanoic acid] | 5.35 | 4.72 | 5.55 | 4.52 |
| O=C(CC(CCn1nnc2ccccc2c1=O)C(=O)O)c1onc2cc(OCc3ccccc3)ccc12 (racemic) [Example 156, (+/−)-4-[6-(Benzyloxy)-2,1-benzoxazol-3-yl]-4-oxo-2-[2-(4-oxo-1,2,3-benzotriazin-3(4H)-yl)ethyl]butanoic acid] | 5.85 | 4.89 | 6.77 | 4.42 |
| O=C(O)[C@H]1[C@H](Cn2nnc3ccc(C(F)(F)F)cc3c2=O)CC[C@@H]1C(=O)c1cc2cc(OCCc3ccccc3)ccc2o1 (racemic) [Example 157, (+/−)-(1RS,2SR,5RS)-2-{[4-Oxo-6-(trifluoromethyl)-1,2,3-benzotriazin-3(4H)-yl]methyl}-5-{[5-(2-phenylethoxy)-1-benzofur-2-yl]carbonyl}cyclopentanecarboxylic acid (racemate)] | 6.06 | 5.96 | 6.72 | 5.31 |
| O=C(CC(CCn1nnc2ccccc2c1=O)C(=O)O)c1cc2cc(OCCc3ccccc3)ccc2o1 (single isomer, unassigned; (+)) [Example 21, (+)-4-Oxo-2-[2-(4-oxo-1,2,3-benzotriazin-3(4H)-yl)ethyl]-4-[5-(2-phenylethoxy)-1-benzofur-2-yl]butanoic acid] | 5.72 | 4.66 | 5.25 | < 4.40 |
| O=C(CC(CCn1nnc2ccccc2c1=O)C(=O)O)c1cc2cc(OCc3ccc(F)cc3)ccc2o1 (single isomer, unassigned; (+)) [Example 23, (+)-4-{5-[(4-Fluorobenzyl)oxy]-1-benzofur-2-yl}-4-oxo-2-[2-(4-oxo-1,2,3-benzotriazin-3(4H)-yl)ethyl]butanoic acid] | 5.72 | < 4.40 | 4.89 | 4.52 |
| O=C(CC(CCn1nnc2ccccc2c1=O)C(=O)O)c1cc2cc(OCc3ccccc3)ccc2o1 (single isomer, unassigned; (+)) [Example 30, (+)-4-[5-(Benzyloxy)-1-benzofur-2-yl]-4-oxo-2-[2-(4-oxo-1,2,3-benzotriazin-3(4H)-yl)ethyl]butanoic acid] | 5.21 | < 4.40 | 4.57 | < 4.40 |
| CCCCCCCOc1ccc2cc(C(=O)CC(CCn3nnc4ccccc4c3=O)C(=O)O)oc2c1 (single isomer, unassigned; (+)) [Example 69, (+)-4-[6-(Heptyloxy)-1-benzofur-2-yl]-4-oxo-2-[2-(4-oxo-1,2,3-benzotriazin-3(4H)-yl)ethyl]butanoic acid acid] | 5.54 | 4.44 | 4.89 | < 4.40 |
| O=C(CC(CCn1nnc2ccccc2c1=O)C(=O)O)c1coc2cc(OCC3CCCC3)ccc12 (single isomer, unassigned; (+)) [Example 80, (+)-4-[6-(Cyclopentylmethoxy)-1-benzofur-3-yl]-4-oxo-2-[2-(4-oxo-1,2,3-benzotriazin-3(4H)-yl)ethyl]butanoic acid] | 6.31 | 5.24 | 6.55 | 4.68 |

More lines, now with the values ahead:

| pIC50 (MMP-2) | pIC50 (MMP-3) | pIC50 (MMP-9) | pIC50 (MMP-16) | SMILES |
| --- | --- | --- | --- | --- |
| 7.02 | 4.77 | 7.39 | 4.89 | CCCCCOc1ccc2c(C(=O)CC(CCn3nnc4ccccc4c3=O)C(=O)O)coc2c1 (single isomer, unassigned) [Example 91, 4-Oxo-2-[2-(4-oxo-1,2,3-benzotriazin-3(4H)-yl)ethyl]-4-[6-(pentyloxy)-1-benzofur-3-yl]butanoic acid] |
| 6.31 | 4.47 | 4.42 | < 4.40 | NC(=O)c1cccc(COc2ccc3oc(C(=O)CC(CCn4nnc5ccccc5c4=O)C(=O)O)cc3c2)c1 (single isomer, unassigned; (+)) [Example 34, (+)-4-{5-[(3-Carbamoylbenzyl)oxy]-1-benzofur-2-yl}-4-oxo-2-[2-(4-oxo-1,2,3-benzotriazin-3(4H)-yl)ethyl]butanoic acid] |
| 6.77 | 4.80 | 7.03 | < 4.40 | O=C(CC(CCn1nnc2ccccc2c1=O)C(=O)O)c1coc2cc(OCC3CCCCC3)ccc12 (single isomer, unassigned; (+)) [Example 82, (+)-4-[6-(Cyclohexylmethoxy)-1-benzofur-3-yl]-4-oxo-2-[2-(4-oxo-1,2,3-benzotriazin-3(4H)-yl)ethyl]butanoic acid] |
| 6.85 | < 4.40 | 7.13 | < 4.40 | CCCCCCOc1ccc2c(C(=O)CC(CCn3nnc4ccccc4c3=O)C(=O)O)coc2c1 (single isomer, unassigned; (+)) [Example 100, (+)-4-[6-(Hexyloxy)-1-benzofur-3-yl]-4-oxo-2-[2-(4-oxo-1,2,3-benzotriazin-3(4H)-yl)ethyl]butanoic acid] |
